Values of other authors in patent US7700588B2, “Pharmaceutical compositions comprising midazolam in a high concentration” (priority 2004, dated 2010).
Where two headings read alike, the source gives them in different places.

Key:
[1] = not given; remark: listed apart in the source
[2] = for mean absolute bioavailability: injection solutions
[3] = free base, pH 7.5
[4] = nasal 0.2 mg/kg
[5] = system: intestinal drug efflux transporter; settings: orally delivered
[6] = commercial intravenous solutions 5 mg/ml, pH 3.3 to 3.5
[7] = after nasal administration, 0.2 to 0.25 mg/kg

In the case of Cc1ncc2n1-c1ccc(Cl)cc1C(c1ccccc1F)=NC2 [midazolam], the onset of action (intranasal, children and adults) is listed as “about 10 minutes”, the “clinical effect in children undergoing diagnostic and minor surgical procedures” value (nasal 0.2 mg/kg) is listed as “sedative and anxiolytic effects” and the “effect on seizures and EEG in epileptic children” value (nasal 0.2 mg/kg) is listed as “suppresses acute seizures and improves the EEG background”. For the same compound, the “share in the ring-closed form” value [1, 6] was 80-85%, the “share in the ring-open form” value [1, 6] was 15-20% and the “state of the ring when pH is increased” value ([1]; pH increased to 7.4) was “completely closed”. The “time for which therapeutically effective plasma concentrations are maintained” value [2, 7] was “about 1 hour”, the “time until therapeutically effective plasma concentrations are manifest” value [2, 7] was 3 min and the “time to maximum plasma concentrations” value ([2]; intranasal) was 5 to 15 min. The mean absolute bioavailability ([2]; intranasal, adult surgical patients) was 83%, the mean absolute bioavailability ([2]; intranasal, children) was 50% and the mean absolute bioavailability ([2]; intranasal, healthy volunteers) was 55%. For the same compound, the “partition coefficient between octanol and phosphate buffer” value [3] was “about 475”, the “side effects in children” value [4] was “none of the children had clinical signs of respiratory depression, bradycardia or other side effects” and the transporter substrate [5] was “substrate for the intestinal drug efflux transporter”.
